Source: patent US20080009418A1, “Selective Inhibitors” (Alchemia LTD., priority 2004, published 2008)

How the values were obtained:
[1] = biological target: T1, Human melanocortin (MC5) (Homo sapiens, UniProt P33032); experiment: Radioligand binding, human melanocortin MC5 membranes, FlashPlate, [125I]-NDP-αMSH; details: compound at 10 μM, [125I]-NDP-αMSH
T1 construct: purchased Perkin Elmer Biosignal
In short: (§1)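 Cloned human receptor membranes were coated onto FlashPlate wells and incubated with radioligand and compound (added from a 0.5 mM DMSO daughter plate) for 1 hour at room temperature in the dark. Scintillation counting gave percent inhibition, with DMSO defining total and reference ligand defining non-specific binding.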

[2] = biological target: T2, Human Melanocortin (MC3) (Homo sapiens, UniProt P41968); experiment: Radioligand binding, human melanocortin MC3 membranes, FlashPlate, [125I]-NDP-αMSH; details: compound at 10 μM, [125I]-NDP-αMSH
T2 construct: purchased Perkin Elmer Biosignal
In short: as §1

[3] = biological target: T3, Human μ-opioid (MOP) (Homo sapiens, UniProt P35372); experiment: Radioligand binding, human μ-opioid (MOP) membranes, FlashPlate, [3H]-Naloxone; details: compound at 10 μM, [3H]-Naloxone
T3 construct: purchased Perkin Elmer Biosignal
In short: as §1

[4] = biological target: T4, Human δ-opioid (DOP) (Homo sapiens, UniProt P41143); experiment: Radioligand binding, human δ-opioid (DOP) membranes, FlashPlate, [3H]-Bremazocine; details: compound at 10 μM, [3H]-Bremazocine
T4 construct: purchased Perkin Elmer Biosignal
In short: as §1

[5] = biological target: T5, Human κ-Opioid (KOP) (Homo sapiens, UniProt P41145); experiment: Radioligand binding, human κ-opioid (KOP) membranes, filtration, [3H]-Diprenorphine; details: compound at 10 μM, [3H]-Diprenorphine
T5 construct: purchased Perkin Elmer Biosignal
In short: (§2)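 Filtration binding on cloned human receptor membranes (1 Unit/well), [125I]-Substance P for NK1 and [3H]-Diprenorphine for KOP, 1 h at room temperature. Filters PEI-presoaked, washed with cold 50 mM Tris-HCl pH 7.4, counted by scintillation; percent inhibition calculated, reference ligand defining non-specific binding.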

[6] = biological target: T6, Human opioid (ORL1) (Homo sapiens, UniProt P41146); experiment: Radioligand binding, human opioid ORL1 membranes, FlashPlate, [125I]-Nociceptin; details: compound at 10 μM, [125I]-Nociceptin
T6 construct: purchased Perkin Elmer Biosignal
In short: as §1

[7] = biological target: T7, Human melanin-concentrating hormone (MCH1) (Homo sapiens, UniProt Q99705); experiment: Radioligand binding, human melanin-concentrating hormone MCH1 membranes, FlashPlate, [125I]-S36057; details: compound at 10 μM
T7 construct: purchased Perkin Elmer Biosignal
In short: as §1

[8] = biological target: T8, Human neurokinin (NK1) (Homo sapiens, UniProt P25103); experiment: Radioligand binding, human neurokinin NK1 membranes, filtration, [125I]-Substance P; details: compound at 10 μM, [125I]-Substance P
T8 construct: purchased Perkin Elmer Biosignal
In short: as §2

[9] = biological target: T9, Human neuropeptide Y (NPY-Y1) (Homo sapiens, UniProt P25929); experiment: Radioligand binding, human neuropeptide Y NPY-Y1 membranes, FlashPlate, [125I]-PYY; details: compound at 10 μM, [125I]-PYY
T9 construct: purchased Perkin Elmer Biosignal
T9 sequence (P25929 1-384): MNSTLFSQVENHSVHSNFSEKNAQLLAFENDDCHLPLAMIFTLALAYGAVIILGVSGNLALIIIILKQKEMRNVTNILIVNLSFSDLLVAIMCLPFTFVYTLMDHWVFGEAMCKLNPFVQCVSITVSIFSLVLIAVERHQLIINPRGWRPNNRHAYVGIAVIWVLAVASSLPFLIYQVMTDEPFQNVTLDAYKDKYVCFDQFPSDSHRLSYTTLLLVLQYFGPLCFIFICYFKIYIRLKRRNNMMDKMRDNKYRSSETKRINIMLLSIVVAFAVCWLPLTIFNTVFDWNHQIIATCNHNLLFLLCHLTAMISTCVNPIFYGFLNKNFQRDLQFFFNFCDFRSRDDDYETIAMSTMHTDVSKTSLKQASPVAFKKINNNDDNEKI
In short: as §1

[10] = biological target: T10, Human Melanocortin (MC4) (Homo sapiens, UniProt P32245); experiment: Radioligand binding, human melanocortin MC4 membranes, FlashPlate, [125I]-NDP-αMSH; details: compound at 10 μM, [125I]-NDP-αMSH
T10 construct: purchased Perkin Elmer Biosignal
In short: as §1

[11] = biological target: T11, Mouse urotensin (mUR2) (Mus musculus, UniProt Q8VIH9); experiment: Radioligand binding, mouse urotensin mUR2 membranes, FlashPlate, [125I]-Urotensin II; details: compound at 10 μM, [125I]-Urotensin II
T11 construct: purchased Perkin Elmer Biosignal
T11 sequence (Q8VIH9 1-385): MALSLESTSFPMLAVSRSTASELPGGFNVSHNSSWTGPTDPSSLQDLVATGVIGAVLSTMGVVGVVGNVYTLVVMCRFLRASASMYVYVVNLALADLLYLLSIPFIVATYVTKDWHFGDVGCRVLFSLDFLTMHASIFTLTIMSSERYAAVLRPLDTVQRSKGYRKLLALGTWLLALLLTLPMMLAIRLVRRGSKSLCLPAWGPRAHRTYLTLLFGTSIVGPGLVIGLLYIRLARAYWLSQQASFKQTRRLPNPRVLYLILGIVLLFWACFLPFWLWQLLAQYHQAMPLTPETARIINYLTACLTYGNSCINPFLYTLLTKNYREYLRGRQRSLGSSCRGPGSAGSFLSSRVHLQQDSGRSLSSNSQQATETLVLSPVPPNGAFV
In short: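 Cloned mouse urotensin (mUR2) receptor membranes from Perkin Elmer Biosignal were immobilized in FlashPlate microplates using a proprietary coating. Each well got 19.5 μl buffer, then 0.5 μl of DMSO, reference ligand, or compound. Adding 5 μl of [125I]-Urotensin II, diluted to 5× final concentration in binding buffer, started binding. Plates were sealed with TopSeal-A and incubated 1 hour at room temperature in the dark. Wells were counted for 30 seconds each on a TopCount after a 60-second delay, and percentage inhibition was calculated.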

T1 sequence (P33032 whole entry): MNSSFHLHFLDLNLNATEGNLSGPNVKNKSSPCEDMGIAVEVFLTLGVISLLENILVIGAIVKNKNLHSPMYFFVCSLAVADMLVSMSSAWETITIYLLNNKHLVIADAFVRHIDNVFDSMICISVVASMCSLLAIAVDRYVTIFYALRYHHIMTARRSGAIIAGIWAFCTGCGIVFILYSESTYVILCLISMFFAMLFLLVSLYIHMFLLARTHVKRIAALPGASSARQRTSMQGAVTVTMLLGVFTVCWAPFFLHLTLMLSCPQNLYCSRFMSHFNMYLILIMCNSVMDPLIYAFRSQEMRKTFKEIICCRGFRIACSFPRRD
T10 sequence (P32245 whole entry): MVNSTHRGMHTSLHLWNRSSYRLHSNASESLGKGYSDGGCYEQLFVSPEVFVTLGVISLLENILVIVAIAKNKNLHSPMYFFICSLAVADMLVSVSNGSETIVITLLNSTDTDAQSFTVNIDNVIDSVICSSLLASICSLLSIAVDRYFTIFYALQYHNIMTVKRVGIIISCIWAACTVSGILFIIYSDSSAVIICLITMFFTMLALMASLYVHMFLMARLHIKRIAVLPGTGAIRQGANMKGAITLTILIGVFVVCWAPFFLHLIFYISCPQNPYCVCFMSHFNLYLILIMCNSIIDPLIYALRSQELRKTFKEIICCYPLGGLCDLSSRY
T4 sequence (P41143 whole entry): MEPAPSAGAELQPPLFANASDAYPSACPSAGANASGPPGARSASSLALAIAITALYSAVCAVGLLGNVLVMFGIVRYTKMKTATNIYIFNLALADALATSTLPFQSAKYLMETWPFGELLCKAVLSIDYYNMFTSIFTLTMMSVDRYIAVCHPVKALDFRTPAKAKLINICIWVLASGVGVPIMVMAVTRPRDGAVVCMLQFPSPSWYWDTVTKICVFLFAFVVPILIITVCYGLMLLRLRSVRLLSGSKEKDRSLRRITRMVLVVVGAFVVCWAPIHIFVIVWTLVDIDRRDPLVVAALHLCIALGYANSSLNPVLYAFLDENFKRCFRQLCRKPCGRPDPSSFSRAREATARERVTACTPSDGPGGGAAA
T3 sequence (P35372 whole entry): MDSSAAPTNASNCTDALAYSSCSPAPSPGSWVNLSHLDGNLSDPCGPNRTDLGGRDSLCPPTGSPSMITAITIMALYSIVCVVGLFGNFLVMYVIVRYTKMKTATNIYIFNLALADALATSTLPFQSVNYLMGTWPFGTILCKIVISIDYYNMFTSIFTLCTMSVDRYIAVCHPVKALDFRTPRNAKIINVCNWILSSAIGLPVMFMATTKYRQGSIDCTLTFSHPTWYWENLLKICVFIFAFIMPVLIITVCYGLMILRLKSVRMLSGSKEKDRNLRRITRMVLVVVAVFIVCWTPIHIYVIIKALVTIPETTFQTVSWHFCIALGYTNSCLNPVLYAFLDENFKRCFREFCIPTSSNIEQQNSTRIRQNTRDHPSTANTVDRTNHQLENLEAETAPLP
T6 sequence (P41146 whole entry): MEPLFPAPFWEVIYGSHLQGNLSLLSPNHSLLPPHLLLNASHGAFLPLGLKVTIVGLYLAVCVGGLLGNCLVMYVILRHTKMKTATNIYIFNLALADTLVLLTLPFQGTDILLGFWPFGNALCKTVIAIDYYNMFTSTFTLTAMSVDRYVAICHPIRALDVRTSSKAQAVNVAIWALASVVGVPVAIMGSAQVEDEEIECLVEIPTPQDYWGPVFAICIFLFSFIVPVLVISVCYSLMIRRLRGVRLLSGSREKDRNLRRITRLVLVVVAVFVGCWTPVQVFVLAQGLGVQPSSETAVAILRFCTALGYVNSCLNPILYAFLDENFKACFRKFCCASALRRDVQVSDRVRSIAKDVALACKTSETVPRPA
T2 sequence (P41968 whole entry): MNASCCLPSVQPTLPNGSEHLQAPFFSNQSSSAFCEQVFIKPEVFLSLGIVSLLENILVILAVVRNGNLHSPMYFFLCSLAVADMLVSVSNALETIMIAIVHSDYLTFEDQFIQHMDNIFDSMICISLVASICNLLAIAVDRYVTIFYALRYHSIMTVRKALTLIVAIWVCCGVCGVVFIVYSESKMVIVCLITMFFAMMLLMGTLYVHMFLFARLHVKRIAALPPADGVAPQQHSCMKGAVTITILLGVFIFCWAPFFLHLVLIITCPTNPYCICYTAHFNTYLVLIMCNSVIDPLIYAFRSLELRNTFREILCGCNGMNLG
T5 sequence (P41145 whole entry): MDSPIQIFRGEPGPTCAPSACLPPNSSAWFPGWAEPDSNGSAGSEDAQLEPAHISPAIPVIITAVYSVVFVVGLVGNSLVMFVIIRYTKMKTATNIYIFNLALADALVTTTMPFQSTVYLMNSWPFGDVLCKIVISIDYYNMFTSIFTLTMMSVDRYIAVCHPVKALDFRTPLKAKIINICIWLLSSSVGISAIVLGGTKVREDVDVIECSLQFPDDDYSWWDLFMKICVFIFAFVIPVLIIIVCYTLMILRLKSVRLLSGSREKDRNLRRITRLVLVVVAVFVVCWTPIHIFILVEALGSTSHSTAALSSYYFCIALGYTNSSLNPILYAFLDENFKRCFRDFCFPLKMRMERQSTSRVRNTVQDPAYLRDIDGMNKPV
T8 sequence (P25103 whole entry): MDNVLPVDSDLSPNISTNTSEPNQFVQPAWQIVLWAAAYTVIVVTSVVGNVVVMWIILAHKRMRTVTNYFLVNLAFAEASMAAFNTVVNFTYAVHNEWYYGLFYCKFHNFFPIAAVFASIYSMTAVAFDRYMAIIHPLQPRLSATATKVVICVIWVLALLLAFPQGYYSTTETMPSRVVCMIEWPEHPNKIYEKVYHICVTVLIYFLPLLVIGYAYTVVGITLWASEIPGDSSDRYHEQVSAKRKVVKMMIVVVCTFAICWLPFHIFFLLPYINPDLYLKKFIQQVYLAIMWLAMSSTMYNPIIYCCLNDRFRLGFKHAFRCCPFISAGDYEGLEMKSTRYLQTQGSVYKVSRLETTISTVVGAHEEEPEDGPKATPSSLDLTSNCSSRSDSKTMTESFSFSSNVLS
T7 sequence (Q99705 whole entry): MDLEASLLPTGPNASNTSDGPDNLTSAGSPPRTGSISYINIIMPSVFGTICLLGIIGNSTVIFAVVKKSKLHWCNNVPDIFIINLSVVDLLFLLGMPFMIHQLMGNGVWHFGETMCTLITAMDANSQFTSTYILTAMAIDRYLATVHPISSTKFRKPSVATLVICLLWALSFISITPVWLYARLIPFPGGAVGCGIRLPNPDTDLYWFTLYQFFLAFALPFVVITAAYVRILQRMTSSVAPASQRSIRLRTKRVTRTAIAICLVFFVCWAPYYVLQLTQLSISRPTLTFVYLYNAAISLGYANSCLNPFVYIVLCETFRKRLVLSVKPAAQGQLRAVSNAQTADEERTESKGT

With `NCCCC(=O)NC1C(OCc2ccc3ccccc3c2)OC(COCc2ccc3ccccc3c2)C(O)C1OCc1ccccc1` (stereo not shown) [compound 396] the “A5: inhibition of radioligand binding” value ([1]; human MC5 membranes) was “+ (“+” indicates greater than 50% inhibition at 10 μM)”, the “A3: inhibition of radioligand binding” value ([2]; human MC3 membranes, 10 µM) was “+ (“+” indicates greater than 50% inhibition at 10 μM)” and the “A7: inhibition of radioligand binding” value ([3]; human MOP membranes) was “− (“−” indicates less than 50% inhibition at 10 μM)”. For the same molecule, the “A1: inhibition of radioligand binding” value ([4]; human DOP membranes) was “− (“−” indicates less than 50% inhibition at 10 μM)”, the “A2: inhibition of radioligand binding” value ([5]; human KOP membranes) was “− (“−” indicates less than 50% inhibition at 10 μM)” and the “A10: inhibition of radioligand binding” value ([6]; human ORL1 membranes, 10 µM) was “− (“−” indicates less than 50% inhibition at 10 μM)”. For the same molecule, the “A6: inhibition of radioligand binding” value ([7]; [125I]-S36057, human MCH1 membranes, 10 µM) was “− (“−” indicates less than 50% inhibition at 10 μM)”, the “A8: inhibition of radioligand binding” value ([8]; human NK1 membranes) was “+ (“+” indicates greater than 50% inhibition at 10 μM)” and the “A9: inhibition of radioligand binding” value ([9]; human NPY-Y1 membranes) was “− (“−” indicates less than 50% inhibition at 10 μM)”. For the same molecule, the “A4: inhibition of radioligand binding” value ([10]; human MC4 membranes, 10 µM) was “+ (“+” indicates greater than 50% inhibition at 10 μM)” and the “A11: inhibition of radioligand binding” value ([11]; mouse mUR2 membranes) was “− (“−” indicates less than 50% inhibition at 10 μM)”.

With `COCC1OC(OCc2ccccc2)C(NC(=O)CCCNC(=N)N)C(OCc2ccc(Cl)cc2)C1O` (stereo not shown) [compound 181] the “A5 radioligand binding, percentage inhibition” value [1] was “+ (“+” indicates greater than 50% inhibition at 10 μM)”, the “A3 radioligand binding, percentage inhibition” value [2] was “− (“−” indicates less than 50% inhibition at 10 μM)” and the “A7 radioligand binding, percentage inhibition” value [3] was “− (“−” indicates less than 50% inhibition at 10 μM)”. The “A1 radioligand binding, percentage inhibition” value [4] was “− (“−” indicates less than 50% inhibition at 10 μM)”, the “A2 radioligand binding, percentage inhibition” value [5] was “− (“−” indicates less than 50% inhibition at 10 μM)” and the “A10 radioligand binding, percentage inhibition” value [6] was “− (“−” indicates less than 50% inhibition at 10 μM)”. For the same molecule, the “A6 radioligand binding, percentage inhibition” value ([7]; [125I]-S36057) was “+ (“+” indicates greater than 50% inhibition at 10 μM)”, the “A8 radioligand binding, percentage inhibition” value [8] was “+ (“+” indicates greater than 50% inhibition at 10 μM)” and the “A9 radioligand binding, percentage inhibition” value [9] was “− (“−” indicates less than 50% inhibition at 10 μM)”. For the same molecule, the “A4 radioligand binding, percentage inhibition” value [10] was “+ (“+” indicates greater than 50% inhibition at 10 μM)” and the “A11 radioligand binding, percentage inhibition” value [11] was “− (“−” indicates less than 50% inhibition at 10 μM)”.
